Residues, ends and D or L forms follow the SMILES beside them. No end group written: not given here.
Biological target: T1, xanthine oxidase (XO) of cow's milk (Bos taurus, UniProt P80457)
T1 construct: xanthine oxidase (XO) of cow's milk (from Wako Pure Chemical); purchased Wako Pure Chemical; host or cells: cow's milk (natural source)
Test: Uric acid synthetase inhibitory activity of peptides that are part of SEQ ID No. 1
Format: biochemical
Details: 15 μM xanthine, 50 mM tris-HCl pH 7.4, 37° C., 10 minutes
Description: Each of the peptides synthesized was added to 1 ml of a 50 mM tris-HCl buffer (pH 7.4) containing 15 μM xanthine as an enzyme substrate to prepare a reaction system. To the reaction system was added 0.1 unit (containing 100 μl of 25 units/25 ml enzyme solution) of xanthine oxidase (XO) of cow's milk (from Wako Pure Chemical), followed by allowing the system to react at 37° C. for 10 minutes. The amount of uric acid produced from xanthine by the action of xanthine oxidase was evaluated in terms of changes in optical density (OD, at 292 nm), from which the enzyme activity was calculated from formula previously given.

T1 sequence (P80457 whole entry): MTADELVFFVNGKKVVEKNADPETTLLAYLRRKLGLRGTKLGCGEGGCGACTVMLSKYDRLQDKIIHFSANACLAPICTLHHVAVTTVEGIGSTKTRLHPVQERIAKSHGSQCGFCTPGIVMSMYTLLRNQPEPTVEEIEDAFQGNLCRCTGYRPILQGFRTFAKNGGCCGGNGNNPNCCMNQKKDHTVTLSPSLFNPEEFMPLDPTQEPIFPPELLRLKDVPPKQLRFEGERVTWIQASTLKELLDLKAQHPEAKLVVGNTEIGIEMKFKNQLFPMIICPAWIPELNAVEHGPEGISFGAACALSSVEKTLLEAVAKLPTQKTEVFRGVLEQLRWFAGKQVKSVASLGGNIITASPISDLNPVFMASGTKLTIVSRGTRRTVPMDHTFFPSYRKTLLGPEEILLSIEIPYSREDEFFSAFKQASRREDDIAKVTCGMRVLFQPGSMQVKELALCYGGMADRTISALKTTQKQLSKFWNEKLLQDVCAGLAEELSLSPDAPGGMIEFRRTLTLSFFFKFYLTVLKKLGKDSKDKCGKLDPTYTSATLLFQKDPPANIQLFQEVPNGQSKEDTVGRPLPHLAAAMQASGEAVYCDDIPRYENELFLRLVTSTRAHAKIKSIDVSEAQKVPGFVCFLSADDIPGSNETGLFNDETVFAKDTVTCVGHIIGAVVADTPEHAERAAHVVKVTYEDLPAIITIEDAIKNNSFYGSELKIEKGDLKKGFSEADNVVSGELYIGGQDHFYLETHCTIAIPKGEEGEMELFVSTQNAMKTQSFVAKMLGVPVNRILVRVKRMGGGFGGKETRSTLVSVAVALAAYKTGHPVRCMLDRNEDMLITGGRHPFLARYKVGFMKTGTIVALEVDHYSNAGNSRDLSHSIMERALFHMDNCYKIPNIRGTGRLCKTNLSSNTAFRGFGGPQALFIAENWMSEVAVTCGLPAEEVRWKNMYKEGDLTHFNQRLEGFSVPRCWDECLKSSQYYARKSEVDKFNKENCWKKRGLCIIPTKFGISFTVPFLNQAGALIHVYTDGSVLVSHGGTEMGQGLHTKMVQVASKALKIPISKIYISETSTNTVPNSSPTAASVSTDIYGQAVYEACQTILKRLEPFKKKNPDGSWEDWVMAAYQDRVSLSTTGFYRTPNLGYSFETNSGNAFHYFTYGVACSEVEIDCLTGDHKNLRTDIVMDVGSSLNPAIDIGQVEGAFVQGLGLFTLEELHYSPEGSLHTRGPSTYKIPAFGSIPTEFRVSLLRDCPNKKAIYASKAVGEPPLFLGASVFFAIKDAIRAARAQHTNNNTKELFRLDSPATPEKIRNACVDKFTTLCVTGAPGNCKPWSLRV

xanthine oxidase activity in system containing the peptide	Molecule
inhibited	NC(=O)C[C@H](NC(=O)[C@@H](N)CC(=O)O)C(=O)O [DN] (H-Asp-Asn-OH; N-terminus and C-terminus assumed)
inhibited	CC(C)C[C@H](N)C(=O)N[C@@H](CC(=O)O)C(=O)N[C@@H](CC(N)=O)C(=O)N[C@@H](Cc1ccc(O)cc1)C(=O)O [LDNY, Leu-Asp-Asn-Tyr] (H-LDNY-OH; N-terminus and C-terminus assumed)
inhibited	CC(C)C[C@H](N)C(=O)N[C@@H](CC(=O)O)C(=O)O [LD] (H-Leu-Asp-OH; N-terminus and C-terminus assumed)

Molecule	xanthine oxidase activity in system containing the peptide
CC(C)C[C@H](NC(=O)[C@@H](N)Cc1ccc(O)cc1)C(=O)N[C@@H](CC(=O)O)C(=O)N[C@@H](CC(N)=O)C(=O)O [YLDN, Tyr-Leu-Asp-Asn] (H-YLDN-OH; N-terminus and C-terminus assumed)	inhibited

Biological target: T2, xanthine oxidase (XO) from butter milk (Bos taurus, UniProt P80457)
T2 construct: xanthine oxidase (XO) from butter milk (from Wako Pure Chemical); purchased Wako Pure Chemical; host or cells: butter milk (natural source)
T2 sequence (P80457 whole entry): as above
Test: Uric acid synthetase inhibitory activity of polypeptides (YINY, YNL, GYL, INF)
Format: biochemical
Details: 15 μM xanthine, pH 7.4, 37° C., 10 minutes
Description: A polypeptide having SEQ ID No. 2 (YINY), which is contained in the enzyme-digested reverse-phase column fraction of the basic fraction of a shark cartilage extract, was synthesized in the same manner as in Example 7 and added to 200 μl of a 50 mM tris-HCl buffer (pH 7.4) containing 15 μM xanthine as an enzyme substrate to prepare a reaction system. To the reaction system was added 0.1 unit (containing 1 μl of 10 units/100 μl enzyme solution) of xanthine oxidase (XO) from butter milk (from Wako Pure Chemical), followed by allowing the system to react at 37° C. for 10 minutes. The amount of uric acid produced from xanthine by the action of xanthine oxidase was evaluated in terms of changes in optical density (OD, at 292 nm), from which the enzyme activity was calculated from formula previously given.
Polypeptides YNL, GYL, and INF which are contained in the enzyme-digested reverse-phase column fraction of the basic fraction of a shark cartilage extract were synthesized in the same manner as in Example 7 and added to 200 μl of a 50 mM tris-HCl buffer (pH 7.4) containing 15 μM xanthine as an enzyme substrate to prepare a reaction system. […] The amount of uric acid produced from xanthine by the action of xanthine oxidase was evaluated in terms of changes in optical density (OD, at 292 nm), from which the enzyme activity was calculated from formula previously given. […]

Molecule	xanthine oxidase activity in system containing the polypeptide
CC[C@H](C)[C@H](NC(=O)[C@@H](N)Cc1ccc(O)cc1)C(=O)N[C@@H](CC(N)=O)C(=O)N[C@@H](Cc1ccc(O)cc1)C(=O)O [YINY, Try-Ile-Asn-Tyr] (H-YINY-OH; N-terminus and C-terminus assumed)	inhibited

Tested on: not listed separately
Test: Solubility of synthesized polypeptides
Details: in 5% NH4OH with H2O
Description: Twenty-four polypeptides contained in the alcalase-digested, reverse phase column fraction of the basic fraction were synthesized in yields of 10 to 300 mg in the same manner as described in Example 7 and their characteristic values were determined.

Solubility	Molecule
1 mg/ml in 5% NH4OH	CC[C@H](C)[C@H](N)C(=O)N[C@@H](CC(N)=O)C(=O)N[C@@H](Cc1ccc(O)cc1)C(=O)O [Ile-Asn-Tyr] (H-Ile-Asn-Tyr-OH; N-terminus and C-terminus assumed)
1 mg/ml in 5% NH4OH	CC[C@H](C)[C@H](NC(=O)[C@@H](N)CO)C(=O)N[C@@H](Cc1ccc(O)cc1)C(=O)N[C@@H](CC(=O)O)C(=O)O [Ser-Ile-Tyr-Asp] (H-SIYD-OH; N-terminus and C-terminus assumed)

Molecule	Solubility
CC[C@H](C)[C@H](NC(=O)[C@@H](N)Cc1ccc(O)cc1)C(=O)N[C@@H](CC(N)=O)C(=O)N[C@@H](Cc1ccc(O)cc1)C(=O)O [YINY, Try-Ile-Asn-Tyr] (H-YINY-OH; N-terminus and C-terminus assumed)	1 mg/ml in 5% NH4OH

Same assay, conditions: in 10% Acetonitrile in water

Solubility	Molecule
1 mg/ml in 10%	CC(C)C[C@H](NC(=O)[C@H](Cc1ccccc1)NC(=O)CN)C(=O)O [Gly-Phe-Leu] (H-Gly-Phe-Leu-OH; N-terminus and C-terminus assumed)
1 mg/ml in 10% in	CC[C@H](C)[C@H](N)C(=O)N[C@@H](Cc1ccc(O)cc1)C(=O)N[C@@H](CC(C)C)C(=O)O [Ile-Tyr-Leu] (H-Ile-Tyr-Leu-OH; N-terminus and C-terminus assumed)

Molecule	Solubility
YLDNY [YLDNY, Tyr-Leu-Asp-Asn-Tyr]	1 mg/ml in 10%

Same assay, conditions: in water (H2O)

Molecule	Solubility
N=C(N)NCCC[C@H](N)C(=O)N[C@@H](Cc1ccc(O)cc1)C(=O)N[C@@H](Cc1ccccc1)C(=O)O [Arg-Tyr-Phe] (H-Arg-Tyr-Phe-OH; N-terminus and C-terminus assumed)	1 mg/ml in H2O
CC(C)C[C@H](NC(=O)[C@H](Cc1ccc(O)cc1)NC(=O)CN)C(=O)O [GYL, Gly-Tyr-Leu] (H-Gly-Tyr-Leu-OH; N-terminus and C-terminus assumed)	1 mg/ml in H2O
CC[C@H](C)[C@H](N)C(=O)N[C@@H](CC(N)=O)C(=O)N[C@@H](Cc1ccccc1)C(=O)O [INF, Ile-Asn-Phe] (H-Ile-Asn-Phe-OH; N-terminus and C-terminus assumed)	1 mg/ml in H2O
CC(C)C[C@H](N)C(=O)N[C@@H](CC(=O)O)C(=O)N[C@@H](CC(N)=O)C(=O)N[C@@H](Cc1ccc(O)cc1)C(=O)O [LDNY, Leu-Asp-Asn-Tyr] (H-LDNY-OH; N-terminus and C-terminus assumed)	1 mg/ml in water
CC(C)C[C@H](NC(=O)[C@@H](N)Cc1ccc(O)cc1)C(=O)N[C@@H](CC(=O)O)C(=O)N[C@@H](CC(N)=O)C(=O)O [YLDN, Tyr-Leu-Asp-Asn] (H-YLDN-OH; N-terminus and C-terminus assumed)	1 mg/ml in water
CC(C)C[C@H](NC(=O)[C@H](CC(N)=O)NC(=O)[C@@H](N)Cc1ccc(O)cc1)C(=O)O [YNL, Tyr-Asn-Leu] (H-Tyr-Asn-Leu-OH; N-terminus and C-terminus assumed)	1 mg/ml in H2O
DFWRY [Asp-Phe-Trp-Arg-Tyr]	1 mg/ml in water

Further lines, results first:

Solubility	Molecule
1 mg/ml in H2O	CC(C)C[C@H](N)C(=O)N[C@@H](Cc1ccccc1)C(=O)O [Leu-Phe] (H-Leu-Phe-OH; N-terminus and C-terminus assumed)
1 mg/ml in H2O	N[C@@H](Cc1ccccc1)C(=O)N[C@@H](Cc1ccc(O)cc1)C(=O)O [Phe-Tyr] (H-Phe-Tyr-OH; N-terminus and C-terminus assumed)
1 mg/ml in H2O	NC(=O)CC[C@H](NC(=O)[C@H](Cc1c[nH]c2ccccc12)NC(=O)[C@H](CC(N)=O)NC(=O)[C@@H](N)CO)C(=O)O [Ser-Asn-Trp-Gln] (H-SNWQ-OH; N-terminus and C-terminus assumed)
1 mg/ml in water	CC(C)C[C@H](NC(=O)[C@@H](N)CO)C(=O)O [Ser-Leu] (H-Ser-Leu-OH; N-terminus and C-terminus assumed)
1 mg/ml in water	CC(C)[C@H](N)C(=O)N[C@@H](CCC(=O)O)C(=O)N[C@@H](Cc1ccc(O)cc1)C(=O)N[C@@H](Cc1ccccc1)C(=O)O [Val-Gln-Tyr-Phe]
1 mg/ml in H2O	CC(C)[C@H](N)C(=O)N[C@@H](Cc1ccc(O)cc1)C(=O)N[C@@H](CCC(N)=O)C(=O)O [Val-Tyr-Gln] (H-Val-Tyr-Gln-OH; N-terminus and C-terminus assumed)
1 mg/ml in water	SPPYWPY [SPPYWPY, Ser-Pro-Pro-Tyr-Trp-Pro-Tyr]
